Assay results: patent publication US20240229097A1, “SYSTEM, METHOD, DEVICE AND MANUFACTURING METHOD THEREOF FOR DETECTING CELLULAR MECHANICAL FORCE” (Ruixin (Fuzhou) Technology Co., Ltd., priority 2021, published 2024)

Tests used:
Format in all cases: cell-based
[1] = test system: breast cancer cells MCF-7 multicellular aggregates; assay: 5-Fu drug sensitivity test on tumor cell multicellular aggregates on the cellular mechanical force detection device; details: MCF-7 aggregates, 200 μM 5-Fu, cultured for one day, FIG. 18
Method: More specifically, this embodiment provides a method for culturing a tumor cell multicellular aggregate on the device for detecting cellular mechanical force for drug sensitivity test, including the steps:
S1, Generation of tumor cell multicellular aggregates: FN 50 μg/mL is applied to the top of the micropillar of the device for detecting cellular mechanical force and sterilized with UV for 30 minutes; breast cancer cells MCF-7 (approximately 1×10^5 to 9×10^5 cells) are seeded on the top surface of the micropillars (number of micropillars is not limited) of the device for detecting cellular mechanical force, which is then immersed in 3dGRO™ Spheroid Medium (S3077) for more than 3 days to induce the formation of tumor cell multicellular aggregates.
S2, Applying the generated tumor cell multicellular aggregates to a 5-Fu drug sensitivity test: 200 μM of 5-Fu is added to the tumor cell multicellular aggregates and cultured for one day; in the test, before the addition of 5-Fu and one day of culture after the addition of 5-Fu on the device for detecting cellular mechanical force (with tumor cell multicellular aggregates, including the culture medium), light reflection signals are captured by the light signal detection device (CCD sensor) and cellular mechanical force distribution images are obtained using the light signal analysis device (ImageJ), as shown in FIG. 18. […]

[2] = test system: non-small cell lung cancer cells A549; assay: Cell viability reflected by cellular mechanical force (micropillar light reflection device), A549 cells treated with 5FU
Excerpt: This embodiment specifically provides using the cellular mechanical force information obtained from any of the system for detecting cellular mechanical force described in the tenth to twelfth embodiments or the cellular mechanical force detection method described in the fourteenth embodiment to monitor cell viability.
(§1) Specifically, this embodiment cultures non-small cell lung cancer cells A549 on multiple device for detecting cellular mechanical force, treats them with different doses of the cell proliferation inhibitor 5-fluorouracil (5-FU), and monitors cellular mechanical forces at different time points using the system for detecting cellular mechanical force or the method described in the tenth to twelfth embodiments or the fourteenth embodiment. Cell proliferation and cytotoxicity are monitored at different time points using the CCK-8 assay kit, with cell viability measured by the MTT assay serving as a control, generating the data for FIGS. 16,b and c.

[3] = test system: non-small cell lung cancer cells A549; assay: MTT assay of cell viability of A549 cells treated with 5FU
Excerpt: as §1

[4] = different doses of 5FU, FIGS. 16,b and c

O=c1[nH]cc(F)c(=O)[nH]1 [5FU, 5-fluorouracil]
cell viability of tumor cell multicellular aggregates [1]: reduced
reflection signals of tumor cell multicellular aggregates [1]: noticeably weaken
time at which a significant decrease trend of cellular mechanical force is observed ([2]; 0.5 μM treatment dose): 6 h
time at which a significant decrease trend of cellular mechanical force is observed ([2]; 1 μM treatment dose): 3 h
cellular viability reflected by mechanical force compared to the control group (DMSO) ([2]; different doses of 5FU for 24 hours, relative to MTT assay, FIG. 16,b): greater reduction
cell viability reflected by cellular mechanical forces [2, 4]: dose-dependent decline
cell viability measured by the conventional MTT assay [3, 4]: dose-dependent decline
change in cell viability by MTT assay ([3]; within 12 hours of 5FU treatment, FIG. 16,c): no significant change
